Like-named read-outs stand apart in the source and are kept apart here. Each block holds one substance with its values, some of them ahead of it. Ends that are not written are not given here. * marks the point of attachment. Methacryloyl = C=C(C)C(=O)*
Key:
E-selectin = target: T1, E-selectin (Homo sapiens, UniProt P16581); assay: Inhibition of HL-60 adhesion to recombinant soluble E-selectin coated plates (competitive inhibition assay); type: binding
T1 sequence (P16581 22-556 limits assumed): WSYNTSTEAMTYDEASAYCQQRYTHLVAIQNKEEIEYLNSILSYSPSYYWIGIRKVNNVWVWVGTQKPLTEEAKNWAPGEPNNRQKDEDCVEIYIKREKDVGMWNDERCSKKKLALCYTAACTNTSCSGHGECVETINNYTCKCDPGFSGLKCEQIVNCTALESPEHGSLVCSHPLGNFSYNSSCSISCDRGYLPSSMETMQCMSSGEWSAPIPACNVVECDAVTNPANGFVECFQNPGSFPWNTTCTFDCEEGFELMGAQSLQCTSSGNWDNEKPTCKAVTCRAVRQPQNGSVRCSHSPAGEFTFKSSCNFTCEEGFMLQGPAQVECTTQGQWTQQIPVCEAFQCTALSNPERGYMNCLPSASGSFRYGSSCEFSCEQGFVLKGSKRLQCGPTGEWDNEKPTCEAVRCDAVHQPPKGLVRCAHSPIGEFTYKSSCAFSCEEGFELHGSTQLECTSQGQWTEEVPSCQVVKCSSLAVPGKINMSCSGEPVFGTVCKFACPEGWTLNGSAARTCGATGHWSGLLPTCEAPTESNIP
Experimental: The percentage of bound HL-60 cells is determined with o-phenylenediamine as a substrate for myeloperoxidases released from lysed cells. […] FIG. 3B depicts binding in the presence of P-Glu-Gly-QA, PAAsLe^x and pHPMA polymers; FIG. 3C depicts binding of P-Glu-Gly-QA and P-Gly-Gly-Lys(Glu)-QA conjugates.
Affinity of Esbp and P-Esbp to E-selectin was evaluated by a competitive inhibition assay of HL-60 to immobilized E-selectin. […] FIG. 7B the results of an inhibition assay with P-Esbp and P-GG-OH, under the same procedure as in FIG. 7A. In this figure diamonds are P-Esbp and squares are P-GG-OH.
The percentage of bound HL-60 cells is determined with o-phenylenediamine as a substrate for myeloperoxidases released from lysed cells. All assays is performed in duplicates.

leukocyte adhesion = settings: have been shown (prior report); read-out: IC50 of inhibition of leukocyte adhesion; cited from earlier work
[1] = tested on: E-selectin expressing cells (IVECs); assay: Flow cytometry of binding and uptake of FITC-labeled conjugates by IVECs; type: cell-based, human; settings: 1 h at 4° C., E-selectin expressing cells (FIG. 12)
Experimental: FIG. 11A-F depicts the results of flow cytometry assays of IVECs incubated with P-Esbp at different temperatures. FIGS. 11(A)-(D) depict results of IVECs incubated 4° C. for 1 hour, while FIGS. 11(E)-(F) depict results of IVECs incubated 37° C. for 15 hr in activated (F) and non-activated (E) cells. FIGS. 11A and 11B show results of incubation with P-Esbp at a concentration of 10 and 50 μg/ml, respectively in TNF-α activated cells, versus 11C and D, which show the results of non-activated cells incubated with the same concentration of P-Ebsp, respectively. Fluorescence, size and number of cells were all measured with GUAVA Tech-Mini Easycyte at 520 nm. Statistical analysis of the results was performed with Cytosoft software (GUAVA Tech). Gates for size and fluorescence were set according to the control experiment with P-GG-OH incubated with non activated IVEC cells.
At 37° C. […]
E-selectin expressing cells were treated with P-Esbp and P-Scrmb as described in previous examples, to determine binding, in activated and non-activated cells (FIG. 12). Cells were treated with P-Esbp and P-Scrmb conjugates for 1 h at 4° C. and evaluated for binding. […] Binding of P-Esbp and scrambled Esbp peptide sequence polymer conjugates (P-Scrmb) to E-selectin expressing cells was similarly evaluated, when cells were also contacted with or without free peptides (FIG. 13). […]

[2] = tested on: E-selectin expressing cells (human IVECs); assay: Confocal microscopy of uptake and lysosomal colocalization of FITC-labeled copolymer conjugates in IVECs; type: cell-based; settings: Example 17, activated and non-activated human IVECs (FIG. 14)
Experimental: Internalization of P-sLe^x-FITC and P-QA-FITC conjugates by endothelial cells was studied using confocal laser scanning microscopy (CLSM). Human IVECs grown on cover glass, and treated with the polymer conjugate, and probed for localization of the polymer within lysosomal vessicles. After 24 hours incubation, cells are washed with cold phosphate-buffered saline (PBS) and fixed with 4% PFA. The cells on the cover glass are mounted in antibleach reagent on slides, examined using a CLSM, and analyzed.
Confocal microscopy was used to evaluate the subcellular fate of the FITC labeled copolymer conjugates by human immortalized vascular endothelial cells, IVECs. Lysotracker Red DND-99 (Molecular Probes, Leiden, The Netherlands) was selected to visualize lysosomes. Cells ([…]) were seeded onto gelatin coated cover slips in 24 wells plate with 500 μL endothelial cells culture medium (Promocell) and incubated for 24 hr. […] Quantitative analysis was performed using Image-Pro Plus 4.0 (Media Cybernetics, Silver Spring, Md.). Fluorescence intensities were expressed in arbitrary units per square micron. […]
Confocal microscopy was used to evaluate the uptake of P-Esbp. […] After removal of medium cells were incubated with 0.5 ml medium with 50 μg/ml of FITC labeled P-Esbp solution for 6 or 24 hours and subjected to fluorescence microscopy. […]

Substance: DITWDQLWDLMK [Esbp, reference compound]
IC50 (E-selectin; Esbp monomer, FIG. 7A, read-out: IC50): 10 µM
IC50 (leukocyte adhesion): 0.004 µM

IC50 (E-selectin; monomers, HL-60 adhesion to immobilized E-selectin, 15 min (FIG. 3A), read-out: Inhibition of 50% binding (IC50) value): 10000 µM
Substance: N-methacryloyl-aminopropyl-Glutamyl-Glycyl-quinic acid [MAP-Glu-Gly-QA]

Substance: P-Scrmb: scrambled Esbp peptide sequence polymer conjugate, GKMIDWTWLQLDD (SEQ ID NO: 8) (Methacryloyl-GGGKMIDWTWLQLDD; also: polymer conjugate, FITC)
percentage of labeled cells [1]: 6%
internalization and colocalization with lysosomal marker [2]: did not show reasonable internalization or colocalization
